From the supplement of paper PMC6045584
± gives the standard deviation of the averaged measurements.

Assays:
CABOZANTINIB [1] = compound: T1, COc1cc2nccc(Oc3ccc(NC(=O)C4(C(=O)Nc5ccc(F)cc5)CC4)cc3)c2cc1OC [CABOZANTINIB]; test: surviving fraction relative to DMSO-only wells; higher = less growth inhibition; details: exposure time: 5 days
Outline: (§1)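 In 384-well plates, 250–500 log-phase tumour cells per well were given 24 hours before five days of continuous exposure to inhibitors at 0.5, 1, 5, 10, 50, 100, 500 and 1000 nM. Surviving fraction is luminescence from CellTiter-Glo, normalised to the median of wells containing DMSO alone. Reading took place after 10 minutes at room temperature.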

VORINOSTAT [2] = compound: T2, O=C(CCCCCCC(=O)Nc1ccccc1)NO [VORINOSTAT]; test: as above; details: exposure time: 5 days
Outline: as §1

CABOZANTINIB [3] = compound: T1, CABOZANTINIB; test: area under dose-response curve of surviving fraction (unscaled, Aref=0) (surviving fraction x log10(nM)); higher = more resistant; details: exposure time: 5 days; dose range 0.5-1000 nM
Outline: (§2)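 Three screens per tumour cell line were run in 384-well plates at eight inhibitor concentrations from 0.5 to 1000 nM over five days. Surviving fractions, from CellTiter-Glo luminescence normalised to DMSO-only wells, were fitted with 3-parameter logistic curves in the drc R package. The reported area under the curve is the unscaled activity area. It spans log10 dose, and Aref is 0.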

BMN-673 = compound: Cn1ncnc1[C@H]1c2n[nH]c(=O)c3cc(F)cc(c23)N[C@@H]1c1ccc(F)cc1 [BMN-673]; test: as above; details: exposure time: 5 days; dose range 0.5-1000 nM
Outline: as §2

[4] = compound: C[C@@H]1CN(CC(=O)Nc2ccc3c(c2)Cc2cccc(-c4cc(=O)cc(N5CCOCC5)o4)c2S3)C[C@H](C)O1; test: as above; details: exposure time: 5 days; dose range 0.5-1000 nM
Outline: as §2

VORINOSTAT [5] = compound: T2, VORINOSTAT; test: as above; details: exposure time: 5 days; dose range 0.5-1000 nM
Outline: as §2

| Test System | surviving fraction (CABOZANTINIB [1]; 0.5 nM) | surviving fraction (CABOZANTINIB [1]; 1 nM) | surviving fraction (CABOZANTINIB [1]; 5 nM) | surviving fraction (CABOZANTINIB [1]; 10 nM) | surviving fraction (CABOZANTINIB [1]; 50 nM) | surviving fraction (CABOZANTINIB [1]; 100 nM) | surviving fraction (CABOZANTINIB [1]; 500 nM) | surviving fraction (CABOZANTINIB [1]; 1000 nM) | surviving fraction (VORINOSTAT [2]; 0.5 nM) | surviving fraction (VORINOSTAT [2]; 1 nM) | surviving fraction (VORINOSTAT [2]; 5 nM) | surviving fraction (VORINOSTAT [2]; 10 nM) | surviving fraction (VORINOSTAT [2]; 50 nM) | surviving fraction (VORINOSTAT [2]; 100 nM) | surviving fraction (VORINOSTAT [2]; 500 nM) | surviving fraction (VORINOSTAT [2]; 1000 nM) | area under dose-response curve (CABOZANTINIB [3]) | area under dose-response curve (BMN-673) | area under dose-response curve [4] | area under dose-response curve (VORINOSTAT [5]) |
| --- | --- | --- | --- | --- | --- | --- | --- | --- | --- | --- | --- | --- | --- | --- | --- | --- | --- | --- | --- | --- |
| HCC1806 BREAST | 0.863 ± 0.075 | 1.06 ± 0.057 | 1.092 ± 0.0075 | 1.06 ± 0.073 | 1.19 ± 0.078 | 1.08 ± 0.12 | 1.08 ± 0.021 | 1.09 ± 0.13 | 1.13 ± 0.16 | 0.721 ± 0.61 | 0.825 ± 0.54 | 0.77 ± 0.64 | 1.18 ± 0.051 | 1.24 ± 0.16 | 0.852 ± 0.073 | 0.527 ± 0.089 | 3.61 | 1.26 | 3.06 | 3 |
| HCC1954 BREAST | 0.955 ± 0.018 | 1.04 ± 0.02 | 1.03 ± 0.13 | 1.02 ± 0.16 | 1.1 ± 0.073 | 0.921 ± 0.0035 | 1.0215 ± 0.00071 | 1.02 ± 0.055 | 0.802 ± 0.19 | 0.823 ± 0.26 | 1.07 ± 0.36 | 1.18 ± 0.13 | 1.345 ± 0.0064 | 1.37 ± 0.21 | 0.839 ± 0.022 | 0.42875 ± 0.00035 | 3.42 | – | 2.82 | 3.06 |
| HCT15 LARGE INTESTINE | 0.952 ± 0.044 | 0.95 ± 0.06 | 0.943 ± 0.044 | 0.951 ± 0.073 | 0.966 ± 0.036 | 1.02 ± 0.037 | 0.994 ± 0.065 | 1.04 ± 0.06 | 0.9863 ± 0.0055 | 0.938 ± 0.023 | 0.963 ± 0.044 | 0.867 ± 0.067 | 1.05 ± 0.028 | 1.06 ± 0.03 | 0.98 ± 0.019 | 0.674 ± 0.056 | 3.2 | 2.22 | 3.44 | 3.26 |
| HELA CERVIX | 1.01 ± 0.028 | 0.98 ± 0.021 | 0.999 ± 0.033 | 0.955 ± 0.042 | 1.08 ± 0.036 | 1.06 ± 0.05 | 1.11 ± 0.088 | 1.1 ± 0.028 | 0.955 ± 0.049 | 0.942 ± 0.066 | 0.972 ± 0.042 | 0.939 ± 0.07 | 1.07 ± 0.057 | 1.06 ± 0.064 | 1.11 ± 0.037 | 1.01 ± 0.092 | 3.33 | 3.22 | 3.72 | 3.3 |
| HOS BONE | 1.02 ± 0.011 | 1.001 ± 0.001 | 1.02 ± 0.015 | 0.9757 ± 0.008 | 1.015 ± 0.0092 | 0.984 ± 0.02 | 0.924 ± 0.019 | 0.89 ± 0.014 | 0.957 ± 0.017 | 1 ± 0.022 | 0.9643 ± 0.0076 | 0.989 ± 0.017 | 1.05 ± 0.019 | 1.07 ± 0.029 | 0.948 ± 0.034 | 0.967 ± 0.021 | 3.24 | 3 | 3.29 | 3.28 |
| HSSYII SYNOVIAL | 0.909 ± 0.022 | 0.927 ± 0.067 | 0.935 ± 0.048 | 0.923 ± 0.025 | 0.963 ± 0.071 | 0.888 ± 0.014 | 0.787 ± 0.0083 | 0.671 ± 0.043 | 0.913 ± 0.023 | 0.87 ± 0.025 | 0.927 ± 0.044 | 0.873 ± 0.016 | 1.06 ± 0.25 | 0.858 ± 0.066 | 0.436 ± 0.012 | 0.201 ± 0.011 | 2.98 | 1.15 | 3 | 2.82 |
| HT1080 SOFT TISSUE | 1.05 ± 0.025 | 0.999 ± 0.021 | 1.01 ± 0.021 | 1.03 ± 0.013 | 1.01 ± 0.022 | 1.01 ± 0.014 | 0.973 ± 0.0017 | 0.965 ± 0.033 | 1.02 ± 0.046 | 1.02 ± 0.015 | 1.05 ± 0.039 | 1.02 ± 0.034 | 0.951 ± 0.028 | 0.914 ± 0.017 | 0.671 ± 0.048 | 0.418 ± 0.029 | 3.29 | 1.71 | 3.27 | 3.01 |
| KPD BONE | 0.914 ± 0.031 | 0.985 ± 0.02 | 1.1 ± 0.045 | 1.04 ± 0.028 | 1.05 ± 0.036 | 1.03 ± 0.045 | 0.997 ± 0.068 | 0.956 ± 0.047 | 0.943 ± 0.058 | 0.981 ± 0.032 | 1.09 ± 0.068 | 1.02 ± 0.067 | 1.07 ± 0.074 | 0.994 ± 0.083 | 0.907 ± 0.048 | 0.65 ± 0.021 | 3.33 | 1.92 | 3.21 | – |
